According to the NIST ThermoML archive (doi:10.1021/je4003916):
± gives the expanded uncertainty stated by the source.

Experiments:
[1] = xn = mol fraction of the nth substance listed; conditions: 101 kPa, Liquid, x2 = 0; for mass density: Vibrating tube method
[2] = refractive index (Na D-line) (dimensionless); xn = mol fraction of the nth substance listed; conditions: 101 kPa, Liquid, Dipping refractometry (monochromatic), x2 = 0
[3] = 293.15 K; 101.33 kPa; Liquid; Vibrating tube method

CCCCO [butan-1-ol] + COC(=O)CCCCC(=O)OC
[1], stabinger viscometer
Conditions | viscosity [mPa·s]
288.15 K | 3.375 ± 0.009
293.15 K | 2.945 ± 0.008
298.15 K | 2.581 ± 0.007
303.15 K | 2.272 ± 0.007
308.15 K | 2.008 ± 0.006
313.15 K | 1.782 ± 0.005
318.15 K | 1.587 ± 0.005
323.15 K | 1.419 ± 0.005

CCCCO [butan-1-ol] + C1CCOC1
Conditions | mass density, [1] [kg/m3] | refractive index, [2] | viscosity, [1] [mPa·s]
288.15 K | 813.37 ± 0.14 | 1.4014 ± 0.0002 | 3.375 ± 0.03
293.15 K | 809.57 ± 0.14 | 1.3993 ± 0.0002 | 2.945 ± 0.027
298.15 K | 805.76 ± 0.14 | 1.3973 ± 0.0002 | 2.581 ± 0.025
303.15 K | 801.92 ± 0.14 | 1.3952 ± 0.0002 | 2.272 ± 0.023
308.15 K | 798.05 ± 0.14 | 1.3932 ± 0.0002 | 2.008 ± 0.021
313.15 K | 794.15 ± 0.14 | 1.3911 ± 0.0002 | 1.782 ± 0.019
318.15 K | 790.23 ± 0.14 | 1.389 ± 0.0002 | 1.587 ± 0.018
323.15 K | 786.24 ± 0.15 | 1.3869 ± 0.0002 | 1.419 ± 0.017

COC(=O)CCCCC(=O)OC [dimethyl 1,6-hexanedioate]
Conditions | mass density [kg/m3]
[3] | 1061.93 ± 0.28
